Consider 22 compounds from patent US4716159A, “Pyridazino[4,3-c]-isoquinolines having anti-anxiety activity” (Gruppo Lepetit, S.p.A., priority 1983, dated 1987).

The target of one assay is benzodiazepine receptor. Description: benzodiazepine receptor test (displacement of 3H-diazepam from rat brain receptors). The assay is classed as binding. Particulars: for Ki: 3H-diazepam, unit inferred; for Inhibition % of the 3H diazepam binding: test compound at 3,6 μM. On the procedure: The anti-anxiety activity of the compounds of the present invention was first detected by submitting some representative compounds to the benzodiazepine receptor test. […] Our experiments were carried out by following the method described by H. Moand T. Okada in Life Sciences, Vol. 20, 2101-2110 (1977).
of the test compound of 3,6 μM.
On the technique in general: In a radioligand displacement assay an active substance lowers the binding of a labelled ligand.

The subject of another assay is rats. Description: conflict test in rats (punished responding, Vogel method as modified by Lippa). Format: in vivo, rat. Particulars: i.p., 60 minutes after administration; for minimal effective dose: Rattus norvegicus, ip, 1 h, read-out: MED (minimal effective dose which significantly increased the number of shocks). On the procedure:
The ability of the compounds of the present invention to increase punished responding in animals in a conflict situation, a procedure with high validity for predicting the anxiolytic effect of drugs, was assessed by testing these compounds in rats according to the method described by J. R. Vogel, B. Beer, D. E. Clody in Psycopharmacologia 21, 1-7, (1971) as modified by A. S. Lippa et al., in "Anxiolytics, Industrial Pharmacology",Vol. 3, Futura Publishing, 1979, pages 41-81.
Briefly, rats are deprived of water for 48 hours and deprived of food for 20 hours prior to testing. Sixty minutes after administration of the test compound each rat is placed in an specially equipped cage. A glucose solution is available from a tap located in the rear of the cage. A constant pulsating shocking current is connected between the grid floor and the tap. Each rat is allowed 20 seconds of non-shocked drinking, then cycles of 5 seconds shock-off and 5 seconds shock-on began. During the shock-on period each lick on the top is accompanied by shock. The number of shocks received by each animal is recorded and minimal effective doses are determined.

Assay [1] concerns mice. Description: antipentylenetetrazole assay in mice. Format: in vivo. Particulars: for prevention of tonic extensor seizures (pentylenetetrazole): pentylenetetrazole 140 mg/kg s.c., compound 30 min before. The procedure:
The antipentylenetetrazole assay in mice have been carried out by essentially following the methodology described by Berger in J. Pharm. Exptl. Ther. 104, 468, (1952). A fatal dose of pentylenetetrazole (140 mg/kg, s.c.) was administered to groups of ten mice each, treated, 30 minutes before the administration of the convulsant agent, with a selected dose of the test compound.

Assay [2] deals with mice. As to the kind of experiment: anti-bicuculline test in mice. Format: in vivo. Particulars: for prevention of seizures (bicuculline): i.p. (highest dose tested), bicuculline 2 mg/kg s.c., compound 30 min before. On the procedure:
The experiments were conducted essentially following the methodology described by P. De La Mora et R. Tapia in Biochem. Pharmac. 22, 2635-2639 (1973). A dose of bicuculline (2 mg/kg, s.c.) was administered to groups of ten mice each which had been given a fixed dose of the text compound 30 minutes before treatment. […] The significance of this fact has not yet been completely clarified since it was first described only recently for two quinoline derivatives (see G. Le Fur et al., Life Sci., 28, 1439-1448 (1981)). […] The favourable pharmacological properties of the compounds of the present invention are accompanied by a generally low toxicity, as in fact the acute toxicity of the compounds of the present invention is in general from 200 to more than 600 mg/kg, i.p. In view of the above, the use of the compounds of the present invention as anticonvulsant and antianxiety agents is a further specific object of the present invention. With the term "use" it is intended to refer to all industrially applicable aspects and acts of said use, including the embodiment of the novel compounds into pharmaceutical compositions.

Where [3] appears, read: 100 mg/kg (highest dose tested).

In general, Ki refers to a dissociation constant, usually derived from enzyme kinetics or from competition with a known ligand. The low end stands for higher affinity, the high end for lower affinity. As usually defined, the minimal effective dose is the lowest level tested that produced the effect sought. Take `CN(C)c1nc2cc(-c3ccccc3)nnc2c2ccccc12` [Example 2, 3-Phenyl-N,N-dimethyl-pyridazino-[4,3-c]-isoquinolin-6-amine]: the Ki at benzodiazepine receptor is 28.4 nM. In addition, in the assay with rats, the minimal effective dose was found to be 10 mg/kg. In the assay with mice [1] (50 mg/kg (highest dose tested)), the “prevention of tonic extensor seizures (pentylenetetrazole)” value (shortened to “prevention of tonic extensor seizures”) is on record as “uneffective”. In addition, the “prevention of seizures (bicuculline)” value in the assay on mice [2] (100 mg/kg) is “failed to prevent seizures”.

Turning to `CCOC(=O)N1CCN(c2nc3cc(-c4ccc(OC)cc4)nnc3c3ccccc23)CC1` [Example 22], the “Inhibition % of the 3H diazepam binding” value in the assay on benzodiazepine receptor is -61%.

Compound `COc1ccc(-c2cc3nc(N4CCCC4)c4ccccc4c3nn2)cc1` [Example 18] gave a Ki on benzodiazepine receptor of 18.7 nM. Besides, the minimal effective dose in the assay on rats was determined as 20 mg/kg. Besides, in the assay on mice [1] (50 mg/kg (highest dose tested)), the “prevention of tonic extensor seizures” value is recorded as “uneffective”. The “prevention of seizures (bicuculline)” value in the assay with mice [2] (100 mg/kg) is reported as “failed to prevent seizures”.

`COCCOc1nc2cc(-c3ccc(OC)cc3)nnc2c2ccccc12` [Example 24, 6-(2-Methoxyethoxy)-3-(4-methoxyphenyl)pyridazino[4,3-c]isoquinoline]: the “Inhibition % of the 3H diazepam binding” value with benzodiazepine receptor is -47%.

The compound `CCN(C)c1nc2cc(-c3ccccc3)nnc2c2ccccc12` [Example 3, N-ethyl-3-phenyl-N-methylpyridazino-[4,3-c]-isoquinolin-6-amine] returned a Ki at benzodiazepine receptor of 65.2 nM. Further, the minimal effective dose with rats was determined as 10 mg/kg. Besides, the “prevention of tonic extensor seizures” value with mice [1] (setting [3]) is listed as “failed to prevent tonic extensor seizures”. For the same compound, the “prevention of seizures (bicuculline)” value in the assay on mice [2] (50 mg/kg) was “uneffective”.

Turning to `COc1ccc(-c2cc3nc(N4CCCCC4)c4ccccc4c3nn2)cc1` [Example 19, 3-(4-Methoxyphenyl)-6-(1-piperidinyl)-pyridazino[4,3-c]isoquinoline], the “Inhibition % of the 3H diazepam binding” value in the assay with benzodiazepine receptor is given as -70%. Besides, the minimal effective dose in the assay on rats was 10 mg/kg. Further, in the assay on mice [1] (50 mg/kg (highest dose tested)), the “prevention of tonic extensor seizures” value was “uneffective”. Besides, the “prevention of seizures (bicuculline)” value with mice [2] (100 mg/kg) was “failed to prevent seizures”.

For `Clc1nc2cc(-c3ccccc3)nnc2c2ccccc12` [Example 1, 6-Chloro-3-phenyl-pyridazino-[4,3-c]-isoquinoline], in the assay on benzodiazepine receptor, the “Inhibition % of the 3H diazepam binding” value is -36%.

As for `COc1ccc(-c2cc3nc(N4CCC4)c4ccccc4c3nn2)cc1` [Example 17, 6-(1-Azetidinyl)-3-(4-methoxyphenyl)pyridazino[4,3-c]isoquinoline], the Ki on benzodiazepine receptor worked out at 130 nM. Further, the minimal effective dose in the assay on rats was found to be 30 mg/kg. For the same compound, the “prevention of tonic extensor seizures” value in the assay with mice [1] (50 mg/kg (highest dose tested)) is listed as “uneffective”. For the same compound, the “prevention of seizures (bicuculline)” value in the assay on mice [2] (100 mg/kg) is “failed to prevent seizures”.

Consider “3-Methyl-pyridazino[4,3-c]isoquinoline [Example 32]”, for which affinity at benzodiazepine receptor was put at a Ki of 245 nM. Further, the “MED (minimal effective dose which significantly increased the number of shocks)” value in the assay with rats is on record as 20 Mg/Kg. Besides, in the assay on mice [1] (50 mg/kg (highest dose tested)), the “prevention of tonic extensor seizures” value is recorded as “uneffective”. Moreover, the “prevention of seizures (bicuculline)” value with mice [2] (100 mg/kg) is given as “failed to prevent seizures”.

Turning to `Clc1ccc(-c2cc3nc(N4CCCC4)c4ccccc4c3nn2)cc1` [Example 27, 3-(4-Chlorophenyl)-6-(l-pyrrolidinyl)pyridazino[4,3-c]isoquinoline], in the assay with benzodiazepine receptor, the “Inhibition % of the 3H diazepam binding” value is -63%.

`c1ccc(-c2cc3nc(N4CCCC4)c4ccccc4c3nn2)cc1` [Example 5, 3-phenyl-6-(1-pyrrolidinyl)pyridazino-[4,3-c]isoquinoline]: the affinity on benzodiazepine receptor, expressed as Ki, was 11.4 nM. Moreover, the minimal effective dose with rats came to 5 mg/kg. For the same compound, the “prevention of tonic extensor seizures” value in the assay with mice [1] (setting [3]) was “failed to prevent tonic extensor seizures”. In addition, the “prevention of seizures (bicuculline)” value with mice [2] (50 mg/kg) is recorded as “uneffective”.

Consider `CCOC(=O)C1CCN(c2nc3cc(-c4ccc(OC)cc4)nnc3c3ccccc23)CC1` [Example 21], for which the “Inhibition % of the 3H diazepam binding” value in the assay on benzodiazepine receptor is -39%.

Turning to `CC(C)Oc1nc2cc(-c3ccccc3)nnc2c2ccccc12` [Example 10], the Ki at benzodiazepine receptor was found to be 1900 nM.

As to `CCOC(=O)CCCN(C)c1nc2cc(-c3ccc(OC)cc3)nnc2c2ccccc12` [Example 16], the “Inhibition % of the 3H diazepam binding” value in the assay on benzodiazepine receptor is -69%.

At benzodiazepine receptor, `COc1ccc(-c2cc3nc(N(C)C)c4ccccc4c3nn2)cc1` [Example 13, N,N-dimethyl-3-(4-methoxyphenyl)pyridazino[4,3-c]isoquinolin-6-amine] had a Ki of 63.3 nM. Also, the minimal effective dose in the assay with rats came to 10 mg/kg. In addition, the “prevention of tonic extensor seizures” value in the assay with mice [1] (50 mg/kg (highest dose tested)) was “uneffective”. The “prevention of seizures (bicuculline)” value in the assay on mice [2] (100 mg/kg) is “failed to prevent seizures”.

A word on the ED50: it is the midpoint of the dose-response relation. With `CN1C(=O)CN=C(c2ccccc2)c2cc(Cl)ccc21` [Diazepam, reference compound], the ED50 in the assay on mice [1] (Mus musculus, ip, 0.5 h, i.p., same experiment, read-out: ED50 (dose which prevents tonic extension seizures in 50% of the treated animals), pentylenetetrazole) amounted to 0.2 mg/kg; in the assay on mice [2] (Mus musculus, ip, 0.5 h, i.p., same experiment, read-out: ED50 (dose which prevents tonic extensor seizures in 50% of the treated animals), bicuculline), 0.18 mg/kg.

With `c1ccc(-c2cc3nc(N4CCOCC4)c4ccccc4c3nn2)cc1` [Example 6, 3-Phenyl-6-(4-morpholinyl)pyridazino[4,3-c]-isoquinoline], the Ki at benzodiazepine receptor was found to be 152 nM. Moreover, the minimal effective dose in the assay on rats came out at 15 mg/kg. Moreover, in the assay on mice [1] (setting [3]), the “prevention of tonic extensor seizures” value is reported as “failed to prevent tonic extensor seizures”. In addition, in the assay with mice [2] (50 mg/kg), the “prevention of seizures (bicuculline)” value was “uneffective”.

In turn, `COc1ccc(-c2cc3nc(N(C)CC(C)O)c4ccccc4c3nn2)cc1` (centres unmarked) [Example 14] gave a Ki on benzodiazepine receptor of 221 nM. In the assay with rats, the minimal effective dose is 30 mg/kg. In the assay on mice [1] (50 mg/kg (highest dose tested)), the “prevention of tonic extensor seizures” value was “uneffective”. In addition, in the assay with mice [2] (100 mg/kg), the “prevention of seizures (bicuculline)” value was “failed to prevent seizures”.

The compound `COCCN(CCOC)c1nc2cc(-c3ccc(OC)cc3)nnc2c2ccccc12` [Example 15, N,N-bis(2-methoxyethyl)-3-(4-methoxyphenyl)pyridazino[4,3-c]isoquinolin-6-amine] came in with an inhibition constant Ki at benzodiazepine receptor of 1180 nM. Moreover, the minimal effective dose in the assay with rats stood at 10 mg/kg. In addition, in the assay on mice [1] (50 mg/kg (highest dose tested)), the “prevention of tonic extensor seizures” value is listed as “uneffective”. For the same compound, in the assay on mice [2] (100 mg/kg), the “prevention of seizures (bicuculline)” value is “failed to prevent seizures”.

Consider `CC(O)CN(C)c1nc2cc(-c3ccccc3)nnc2c2ccccc12` (centres unmarked) [Example 4, 1-[(3-Phenyl-pyridazino[4,3-c]isoquinolin-6-yl)methylamino]-2-propanol], for which the affinity on benzodiazepine receptor, expressed as Ki, was 136 nM. For the same compound, the minimal effective dose in the assay with rats is 30 mg/kg. Besides, the “prevention of tonic extensor seizures” value in the assay on mice [1] (setting [3]) is recorded as “failed to prevent tonic extensor seizures”. In addition, in the assay with mice [2] (50 mg/kg), the “prevention of seizures (bicuculline)” value is “uneffective”.

Turning to `CCOc1nc2cc(-c3ccccc3)nnc2c2ccccc12` [Example 9, 6-Ethoxy-3-phenyl-pyridazino [4,3-c]isoquinoline], the Ki on benzodiazepine receptor was determined as 1480 nM.

In the case of `COc1ccc(-c2cc3nc(N4CCOCC4)c4ccccc4c3nn2)cc1` [Example 20, 3-(4-Methoxyphenyl)-6-(4-morpholinyl)-pyridazino[4,3-c]isoquinoline], the “Inhibition % of the 3H diazepam binding” value in the assay with benzodiazepine receptor was -76%. In addition, the minimal effective dose in the assay on rats stood at 30 mg/kg. Besides, in the assay with mice [1] (50 mg/kg (highest dose tested)), the “prevention of tonic extensor seizures” value is recorded as “uneffective”. Also, the “prevention of seizures (bicuculline)” value in the assay with mice [2] (100 mg/kg) was “failed to prevent seizures”.
